In US4180669A, “2-(N-phenethyl-4-piperidino)-5-pentyl resorcinol” (Abbott Laboratories, priority 1978, dated 1979):
Read-outs that look alike come from different tables or passages of the source.

Key:
[1] = tested on: pylorous ligated rats; test: Antisecretory activity in the pylorous ligated rat model; format: in vivo, male Sprague-Dawley rats; conditions: Rattus norvegicus, 4 h; for inhibition in vivo at 6.3 mg/kg: oral dose 6.3 mg/kg; for inhibition in vivo at 12.5 mg/kg: oral dose 12.5 mg/kg; for inhibition in vivo at 25 mg/kg: oral dose 25 mg/kg; for inhibition in vivo at 50 mg/kg: oral dose 50 mg/kg; for inhibition in vivo at 100 mg/kg: oral dose 100 mg/kg
Protocol: To determine the antisecretory activity of the present compounds, the compounds were tested for such activity in pylorous ligated rats. In this test, male Sprague-Dawley rats weighing 170-190 g. were fasted for 24 hours. Water was allowed ad libitum. All groups were comprised of six rats. […] Water was withheld after drug administration. Ligation of the pyrloric sphincter was performed under ether anesthesia, and four hours after ligation the animals were sacrificed with CO2. The stomach was dissected out and the contents were expelled into a graduated centrifuge tube. The samples were centrifuged and the volume, less debris, was measured. Sample aliquots were titrated with 0.05 N NaOH to determine acid concentration. Pepsin activity was determined on an auto analyzer using hemoglobin as the substrate by the method of Anson. Group means for volume, acid and pepsin concentrations, and pepsin outputs were compared for statistically significant differences from control means by Student's t-test.

[2] = tested on: pentagastrin stimulated fistula dog; test: Antisecretory activity in the pentagastrin stimulated fistula dog; format: in vivo, female beagle dogs; conditions: dose 20 mg/kg; pentagastrin 10 μg/kg s.c.; 2 hours
Protocol: In addition to the test described in Example XXXVI, some of the present compounds were tested in dogs.
In this test, female beagle dogs weighing 5.5-7.5 kg. were surgically provided with gastric fistulas at the ventral wall of the stomach near the greater curvature and just proximal to the antrum. The animals were allowed to recover for three to four weeks before handling and training were begun, and experiments were started six to eight weeks after surgery. The individually housed dogs were fasted for 20-24 hours before use. Water was allowed ad lib. Treatment selection was determined by a randomized schedule which included control groups given vehicle (0.5% Methocel® solution) only. During the test period each dog was secured in a standing position with one collar around the neck and another around the lower abdomen. Before drug administration, the cannula plug of the gastric fistula was removed and the pH of the gastric juice was checked. Animals with acidic gastric juice (pH 4.0 or less) were replaced with alternate dogs. Then the drug was administered intragastrically […] through a special gastric cannula instillation plug, 30 minutes prior to subcutaneous administration of a gastric stimulant (pentagastrin, 10 μg/kg).
For each dog, collection of gastric juice was begun immediately after administration of the gastric stimulant and continued for two hours. The volumes of collected gastric juices were measured. The acid concentration and pepsin activity were determined for all samples by automated procedures. For the dog data, as recorded in Table 2, below, group means for volume (ml), acid concentration (acidity, mEq/l), pepsin concentration (mg/ml), acid output (mEq/2 hr), and pepsin output (mg/2 hr) were compared with the respective control means using Student's t-test. The results were also expressed as percent inhibition of the respective individual mean control values.
Group means for volume, acid and pepsin concentrations, acid and pepsin outputs were compared for statistically significant differences from control means by Student's t-test.

[3] = negative sign means stimulated, read-out: Percent inhibition of pepsin
[4] = read-out: Percent inhibition of acid output
[5] = read-out: Percent inhibition of acidity
[6] = read-out: Percent inhibition of pepsin output
[7] = read-out: Percent inhibition of volume

## CC(C)c1cc(O)c(C2=CCN(C)CC2)c(O)c1.Cl [Example VI, 2-(N-Methyl-1,2,3,6-tetrahydro-4-pyridyl)-5-isopropyl resorcinol hydrochloride]
[1]; [3]
  inhibition in vivo at 6.3 mg/kg: -13.6%
  inhibition in vivo at 12.5 mg/kg: -25.3%
  inhibition in vivo at 25 mg/kg: -22.3%
  inhibition in vivo at 50 mg/kg: -38.6%
  inhibition in vivo at 100 mg/kg: -48.8%
[1]; [4]
  inhibition in vivo at 6.3 mg/kg: 23.4%
  inhibition in vivo at 12.5 mg/kg: 59.4%
  inhibition in vivo at 25 mg/kg: 80.9%
  inhibition in vivo at 50 mg/kg: 84.4%
  inhibition in vivo at 100 mg/kg: 87.7%
[1]; [5]
  inhibition in vivo at 6.3 mg/kg: 7%
  inhibition in vivo at 12.5 mg/kg: 21.6%
  inhibition in vivo at 25 mg/kg: 49.9%
  inhibition in vivo at 50 mg/kg: 51.7%
  inhibition in vivo at 100 mg/kg: 62.1%
[1]; [6]
  inhibition in vivo at 6.3 mg/kg: 7%
  inhibition in vivo at 12.5 mg/kg: 41.2%
  inhibition in vivo at 25 mg/kg: 60.2%
  inhibition in vivo at 100 mg/kg: 53.3%
[1]; [7]
  inhibition in vivo at 6.3 mg/kg: 18.9%
  inhibition in vivo at 12.5 mg/kg: 49.8%
  inhibition in vivo at 25 mg/kg: 66.1%
  inhibition in vivo at 50 mg/kg: 67.3%
  inhibition in vivo at 100 mg/kg: 67.5%
[1]; negative sign means stimulated, read-out: Percent inhibition of pepsin output
  inhibition in vivo at 50 mg/kg: 54.7%
[2]
  % Inhibition of acid output: 26.6%
  % Inhibition of acidity: 36.6%
  % Inhibition of pepsin: 62.7%
  % Inhibition of pepsin output: 57.1%
  % Inhibition of volume: -17.6%
